Measured values taken from article PMC9376960, “Ruthenium(II)–Tris-pyrazolylmethane Complexes Inhibit Cancer Cell Growth by Disrupting Mitochondrial Calcium Homeostasis” (Journal of Medicinal Chemistry, 2022).
Marks after values point to notes of the source that are not given here.

Key:
[1] = tested on: mitochondrial membrane potential of HCT116 cells; experiment: Mitochondrial membrane potential, TMRE assay; type: cell-based, human; settings: 5 h; 10 μM and 2x or 4x IC50,72h
Experimental: Effects of Ru complexes on mitochondrial membrane potential were assessed by TMRE staining of HCT116 cells after treatment. First, HCT116 cells were seeded on a six-well plate at a 1.5 × 10^5 cells/well density. The next day, the cells were treated with equimolar (10 μM) and equitoxic (twofold or fourfold IC50,72h) concentrations of Ru complexes for 5 h. Then, the cells were collected and stained with 100 nM TMRE in a complete DMEM medium for 30 min at 37 °C in the dark. The TMRE-containing medium was then replaced with PBS, and cells were analyzed by a BD FACSverse flow cytometer (λex = 488 nm, λem = 586 nm).

[2] = Stability and speciation in deuterated cell culture medium (DMEM-d/DMSO-d6, NMR); type: physicochemical; settings: for residual complex % in DMEM-d/DMSO-d6: after 24 h at 37 °C; for Aquo species % in DMEM-d/DMSO-d6 at t0 / Aquo species % in DMEM-d/DMSO-d6 after 24h: DMSO-d6-DMEM-d 1:4 v/v; for Aquo species % in DMEM-d/DMSO-d6 after 24h: 37 °C
Experimental: Powdered DMEM cell culture medium (1000 mg/L glucose and L-glutamine, without sodium bicarbonate and phenol red; D2902; Sigma-Aldrich) was dissolved in D2O (10 mg/mL), according to the manufacturer’s instructions. The solution of deuterated cell culture medium (“DMEM-d”) was treated with Me2SO2 (6.6 × 10^–3 M) and NaH2PO4/Na2HPO4 (0.10 M, pD = 7.5)[120]−[122] and then stored at 4 °C under N2. The selected ruthenium compound (2–3 mg) was dissolved in DMSO-d6 (0.14 mL; 0.18 mL for 4) and then diluted with DMEM-d up to 0.75 mL total volume (cRu ca. 4 × 10^–3 M). The mixture was stirred for 30 min, then filtered over celite, and transferred into an NMR tube. The resulting yellow solution was analyzed by ^1H and ^31P NMR (delay time = 3 s; number of scans = 20) and then heated at 37 °C for 24 h. After cooling to room temperature, NMR analyses were repeated. Compound 1 was instead dissolved in a DMSO-d6/DMEM-d 4:1 v/v solution (0.7 mL; [Ru] = approx. 3 × 10^–3 M) containing Me2SO2 as the internal standard.[115] The percentage of the starting complex + related aquo complex was calculated by the relative integral with respect to Me2SO2 (δ/ppm = 3.16 in DMSO-d6/DMEM-d 1:4 and 1:3 v/v; δ/ppm = 2.95 in DMSO-d6/DMEM-d 4:1 v/v).

[3] = Solubility in water (D2O) by 1H NMR; type: physicochemical; settings: for solubility: D2O, 21°C, sum of chloro and aquo complex after 2 h, 1H NMR, Me2SO2 standard
Experimental: A suspension of the selected ruthenium complex (3–5 mg) in a D2O solution (0.7 mL) containing Me2SO2 as the internal standard[115] (3.36 × 10^–3 M) was vigorously stirred at 21 °C for 2 h. The resulting saturated solution was filtered over celite, transferred into an NMR tube, and analyzed by ^1H NMR and ^31P NMR spectroscopy (delay time = 3 s; number of scans = 20). The concentration (solubility) was calculated by the relative integral (starting complex + aquo complex, C^βH signal in the ^1H spectrum) with respect to Me2SO2 (δ/ppm = 3.14). NMR data are given in the Supporting Information (Figures S36–S47).

HCT116 (3D) = experiment: Cytotoxicity in 3D spheroids (colonospheres), Cell Titer-Glo 3D; type: cell-based, human; settings: for effect on the morphology of 3D spheroids: 20 µM, 72 h, bright-field images; for IC50: Cell Titer-Glo, spheroids, 72 h of treatment
Experimental: A spontaneous spheroid formation was used to generate colonospheres derived from the HCT116 cell line. The HCT116 cells were seeded on 96-well ultralow attachment plates (1400 cells/well) and cultivated in a tumor sphere-forming medium (DMEM/F12, supplemented with B27 (Invitrogen), BSA, bFGF (10 ng mL^–1), and EGF (20 ng mL^–1)) for 4 days. After the incubation period, colonospheres were treated with Ru complexes for another 3 days. The viability of colonospheres was determined by the Cell Titer-Glo 3D cell viability assay (Promega) according to the manufacturer’s instructions. The reported IC50 values are the average of three independent experiments, each consisting of three replicates per concentration level. Bright-field images of the spheroids were taken as well to determine the effect on the morphology of the spheroids.

[4] = tested on: mitochondria of HCT116 cells; experiment: Ru content in isolated mitochondria (ICP-MS); type: cell-based, human; settings: HCT116, 10 μM, 24 h
Experimental: The HCT116 cells were seeded at a density of 3 × 10^6 cells/10 mL Petri dish and incubated overnight. The cells were treated with Ru complexes (10 μM) for 24 h, harvested, and washed with ice-cold PBS, and mitochondrial fractions were extracted by the Mitochondrial Isolation Kit (MITOISO2, Sigma-Aldrich) according to the manufacturer’s instructions. The Ru content in each sample was evaluated by ICP-MS. The measurement was performed in triplicate.

[5] = Stability and chloride/water exchange in D2O (NMR); type: physicochemical; settings: for Aquo species % in D2O after 48h: 48 h at 37 °C; for residual complex % in D2O: sum of chloro and aquo complexes; for Aquo species % in D2O at t0: t0 = after 2 h stirring in D2O
Experimental: The same samples prepared at point (a) were used in this experiment, apart from complex 1 that was dissolved in DMSO-d6/D2O 4:1 v/v solution (0.7 mL; [Ru] = approx. […]) containing Me2SO2 as the standard.[115] After ^1H and ^31P{^1H} NMR analyses described above at point (a) (time = t0), samples were heated at 37 °C for 48 h. After cooling to room temperature, ^1H and ^31P NMR spectra were recorded. The percentage of starting complex + related aquo complex was calculated by the relative integral (C^βH signal in the ^1H spectrum) with respect to Me2SO2 (c = 3.3 × 10^–3 mol·L^–1; δ/ppm = 3.14 in D2O; δ/ppm = 2.95 in DMSO-d6/D2O 4:1 v/v), see Table 2 and S1.

[6] = DMSO-d6/DMEM-d 1:4 v/v, sum of chloro and aquo complexes

Row | residual complex % in DMEM-d/DMSO-d6 ([2]; compound 1: DMSO-d6/DMEM-d 4:1 v/v) | solubility in water [3] | Ru in isolated mitochondria [4] | residual complex % in DMSO-d6/D2O ([5]; DMSO-d6/D2O (4:1 v/v) mixture, after 48 h at 37 °C) | Aquo species % in DMEM-d/DMSO-d6 at t0 [2] | Aquo species % in DMEM-d/DMSO-d6 after 24h [2] | residual complex % in DMEM-d/DMSO-d6 [2, 6] | solubility [3] | Aquo species % in D2O after 48h [5] | residual complex % in D2O ([5]; after 48 h at 37 °C) | Aquo species % in D2O at t0 [5] | Substance | decrease of TMRE fluorescence (mitochondrial depolarization) [1] | effect on the morphology of 3D spheroids (HCT116 (3D)) | fold more effective than cisplatin (HCT116 (3D); 3D spheroids HCT116) | IC50 (HCT116 (3D))
1 |  |  |  |  | 0% | 66% | 100% | 3.4 10^–3 mol·L^–1 | 93% | 100% | 75% | [RuCl(κ^3-tpm)(PPh3){NCHN(Me)(CH)2}]Cl [compound 3] |  |  |  | 
2 |  |  | 127 ± 24 pg Ru/10^6 cells |  | 0% | 16% | 95% | 3.1 10^–3 mol·L^–1 | 83% | 100% | 57% | [RuCl(κ^3-tpm)(PPh3){P(OMe)3}]Cl [compound 7] | less potent in reducing mitochondrial membrane potential | heterogeneous morphology with several dissociated cell clumps |  | 12.2 ± 2.5 µM

The remaining lines, values behind:

Row | Substance | residual complex % in DMEM-d/DMSO-d6 ([2]; compound 1: DMSO-d6/DMEM-d 4:1 v/v) | solubility in water [3] | Ru in isolated mitochondria [4] | residual complex % in DMSO-d6/D2O ([5]; DMSO-d6/D2O (4:1 v/v) mixture, after 48 h at 37 °C) | Aquo species % in DMEM-d/DMSO-d6 at t0 [2] | Aquo species % in DMEM-d/DMSO-d6 after 24h [2] | residual complex % in DMEM-d/DMSO-d6 [2, 6] | solubility [3] | Aquo species % in D2O after 48h [5] | residual complex % in D2O ([5]; after 48 h at 37 °C) | Aquo species % in D2O at t0 [5] | decrease of TMRE fluorescence (mitochondrial depolarization) [1] | effect on the morphology of 3D spheroids (HCT116 (3D)) | fold more effective than cisplatin (HCT116 (3D); 3D spheroids HCT116) | IC50 (HCT116 (3D))
3 | [RuCl(κ^3-tpm)(PPh3)2]Cl [compound 1] | 88% | insoluble in water | 467 ± 66 pg Ru/10^6 cells | 69 ^c % |  |  |  |  |  |  |  | more pronounced | almost completely disintegrated | approximately 18 fold | 2.5 ± 0.6 µM
4 | [RuCl(κ^3-tpm)(PPh3)(CNCy)]Cl [compound 8] |  |  | 70 ± 15 pg Ru/10^6 cells |  | 0% | 16% | 98% | 1.1 10^–3 mol·L^–1 | 90% | 92% | 33% | more pronounced | heterogeneous morphology with several dissociated cell clumps |  | 12.1 ± 2.7 µM
5 | [RuCl(κ^3-tpm)(PPh3){CNCH2P(O)(OEt2)2}]Cl [compound 9] |  |  |  |  | 0% | 17% | 97% | 4.6 10^–3 mol·L^–1 | 73% | 93% | 0% |  |  |  | 
